Measurements taken from article PMC7349657, “Efficient Targeted Degradation via Reversible and Irreversible Covalent PROTACs” (Journal of the American Chemical Society, 2020).

Test system: Ramos cells
Experiment: Label-free quantitative proteomics in Ramos cells
Type: cell-based, Homo sapiens
Conditions: 24 h; for Difference for 50 nM, C11orf98 / Difference for 100 nM, C11orf98: protein C11orf98 (E9PRG8); for Difference for 50 nM, MAP1LC3B;MAP1LC3B2;MAP1LC3A / Difference for 100 nM, MAP1LC3B;MAP1LC3B2;MAP1LC3A: proteins MAP1LC3B;MAP1LC3B2;MAP1LC3A; for Difference for 50 nM, MIF4GD / Difference for 100 nM, MIF4GD: protein MIF4GD (A9UHW6); for Difference for 50 nM, MED19 / Difference for 100 nM, MED19: protein MED19 (A0JLT2)
Description: To assess their proteomic selectivity, we incubated the PROTACs at 50 or 100 nM for 24 h with Ramos cells and followed the change in protein abundance via quantitative label-free proteomics (Figure 7, Supporting Figure 6). In agreement with the Western blot analysis, BTK was efficiently degraded by all the PROTACs we tested. […] Ramos cells were incubated with each PROTAC (50 nM) or DMSO in quadruplicates for 24 h and were then subjected to label-free quantitative proteomics analysis. Each graph plots the Log2 fold-change of proteins in the treated samples compared to the DMSO controls (x-axis) vs the −log(p-value) of that comparison in a Student’s t test (y-axis). […]
supplemented with 300 mM imidazole). The His tag was cleaved by the addition of TEV protease with concomitant dialysis overnight into cleavage buffer (50 mM Tris, pH 8.0, 0.5 mM EDTA, 1 mM DTT) at 4°C. The resulting soluble protein was passed ov er Ni -NTA beads to remove the protease and purified further by gel filtration on a HiLoad_16/60_Superdex_75 (GE Healthcare) column equilibrated with 20 mM Tris, pH 8.0, 50 mM NaCl, 1 mM DTT. The pure protein was then flash-frozen in liquid nitrogen and stored at −80°C.
C57BL/6 mice were purchased from Harlan (Rehovot, Israel) and maintained in a pathogen-free facility, experiments were carried on 8-12 weeks old male mice. All exp eriments with mice were approved by the Weizmann Institute Animal Care and Use Committee.
Splenic cells from C57BL/6 mice were isolated by forcing spleen tissue through mesh into PBS containing 2% fetal calf serum and 1 mM EDTA and red blood cells were depleted by lysis buffer. Cells were cultured in 96-well U-b ottom dishes (1x10^6 cells/m L in RPMI 10% […]
nM, 10 nM, 1 nM, 0.1 nM) for 24 hours at 37° C in 5% humidified CO2 incubator. Following a 24 hours incubation, cells were stimulated with anti-IgM overnight (5 µg/mL, Sigma-Aldrich). Subsequently, cells were stained with anti-B220 (clone RA3-6B2, Biolegend) and anti-CD86 (clone GL-1, Biolegend) antibodies for 30 minutes at 4°C. Single cell suspensions were analyzed by a flow cytometer (CytoFlex, Beckman Coulter).
Cells were analyzed by intensity based, label-free mass spectrometry based proteomics.
Sample preparation: 106 Ramos cells were treated in four replicates with either compound or DMSO for 24 hours. Cells were then washed twice by centrifuge at 200 rcf, 4°C for 5 minutes, removing the supernatant and washed with ice cold PBS. Samp les were then centrifuged at 200 rcf, 4°C for 5 minutes, then supernatant was removed and samples were frozen at -80°C.
Samples were dispersed in 75 µl of 50 mM ammonium bicarbonate, and transferred to 1.8 mL glass vials. 75 µl of 10% SDS in 50 mM ammonium bicarbonate were added and the samples were heated to 96° C for 6 minutes. The samples were sonicated thoroughly in a sonication bath until the DNA was sheared as indicated by reduction in viscosity to level enabling easy pipettation. Total protein concentration was estimated using BCA as say and 30 µg from each sample was taken for the experiment. […]
to 60°C for 45 minutes. The samples were cooled to room temperature, and 1/20 volume of […]
200 mM iodoacetamide was added and the reaction was performed in the dark for 30 minutes.
At this point, 1/10 volume of 12% phosphoric acid was added, followed by 6 volume […]
of 90% methanol in 50 mM ammonium bicarbonate. The samples were loaded on S-trap Micro […]
columns (Protify), and washed 3 times with 90% methanol in 50 mM ammonium bicarbonate.
The columns were spun without washing to dry the methanol. Then, 1 µg of trypsin (Promga) […]
in 20 µl of 50 mM ammonium bicarbonate was added to each column, and they were incubated […]
at 47° C for 1. 5 hours. Then, 40 µl of 50 mM ammonium bicarbonate was added and the sample […]
was eluted and another 0. 5 µg of trypsin was added, fo llowed by overnight incubation at 37 ° C.
The columns themselves were further eluted with 40 µl 0.2% formic acid in water, followed […]

[1] = 50 nM, Log2 fold-change vs DMSO
[2] = 100 nM, Log2 fold-change vs DMSO

| SMILES | effect on off-targets LCK and PLK1 (50 or 100 nM) | off-targets degraded (CSK, LYN, BLK) (50 or 100 nM) | Difference for 50 nM, C11orf98 [1] | Difference for 100 nM, C11orf98 [2] | Difference for 50 nM, MAP1LC3B;MAP1LC3B2;MAP1LC3A [1] | Difference for 100 nM, MAP1LC3B;MAP1LC3B2;MAP1LC3A [2] | Difference for 50 nM, MIF4GD [1] | Difference for 100 nM, MIF4GD [2] | Difference for 50 nM, MED19 [1] | Difference for 100 nM, MED19 [2] | also measured |
| --- | --- | --- | --- | --- | --- | --- | --- | --- | --- | --- | --- |
| N#CC(=CCCCCOCCOCCOCCOCCOc1cccc2c1C(=O)N(C1CCC(=O)NC1=O)C2=O)C(=O)N1CCCC(n2nc(-c3ccc(Oc4ccccc4)cc3)c3c(N)ncnc32)C1 (stereo not shown) [RC-2] | not significantly affected | degraded the known ibrutinib off-targets CSK, LYN, and BLK | -0.2599 | 0.08889 | -0.1598 | 0.1213 | – | – | – | – | Difference for 50 nM, ESYT2 (protein ESYT2 (A0FGR8), 50 nM, Log2 fold-change vs DMSO): 0.001137; Difference for 100 nM, ESYT2 (protein ESYT2 (A0FGR8), 100 nM, Log2 fold-change vs DMSO): -0.137; Difference for 50 nM, HAX1 (protein HAX1 (O00165), 50 nM, Log2 fold-change vs DMSO): -0.1673; Difference for 100 nM, HAX1 (protein HAX1 (O00165), 100 nM, Log2 fold-change vs DMSO): 0.4145; Difference for 50 nM, UNC119B (protein UNC119B (A6NIH7), 50 nM, Log2 fold-change vs DMSO): -0.2229; Difference for 100 nM, UNC119B (protein UNC119B (A6NIH7), 100 nM, Log2 fold-change vs DMSO): -0.06661 |
| Nc1ncnc2c1c(-c1ccc(Oc3ccccc3)cc1)nn2C1CCCN(C(=O)CCCCCCOCCOCCOCCOCCOc2cccc3c2C(=O)N(C2CCC(=O)NC2=O)C3=O)C1 (stereo not shown) [NC-1] | not significantly affected | degraded the known ibrutinib off-targets CSK, LYN, and BLK | – | – | -0.1034 | 0.1967 | 0.1494 | 0.1711 | – | – | BTK degradation (proteomics) (50 or 100 nM): highest degradation potency against BTK; Difference for 50 nM, NUDT19 (protein NUDT19 (A8MXV4), 50 nM, Log2 fold-change vs DMSO): 0.09117; Difference for 100 nM, NUDT19 (protein NUDT19 (A8MXV4), 100 nM, Log2 fold-change vs DMSO): 0.676; Difference for 50 nM, ZC3H12D (protein ZC3H12D (A2A288), 50 nM, Log2 fold-change vs DMSO): -0.03901; Difference for 100 nM, ZC3H12D (protein ZC3H12D (A2A288), 100 nM, Log2 fold-change vs DMSO): -0.07076; Difference for 50 nM, SNRPG;SNRPGP15 (proteins SNRPG;SNRPGP15, 50 nM, Log2 fold-change vs DMSO): -0.1263; Difference for 100 nM, SNRPG;SNRPGP15 (proteins SNRPG;SNRPGP15, 100 nM, Log2 fold-change vs DMSO): 0.0004592 |
| Nc1ncnc2c1c(-c1ccc(Oc3ccccc3)cc1)nn2C1CCCN(C(=O)C=CCCCCOCCOCCOCCOCCOc2cccc3c2C(=O)N(C2CCC(=O)NC2=O)C3=O)C1 (stereo not shown) [IR-2] | not significantly affected | degraded the known ibrutinib off-targets CSK, LYN, and BLK | -0.1649 | -0.1913 | -0.3401 | -0.09776 | – | – | -0.004671 | 0.772 | Difference for 50 nM, POM121C (protein POM121C, 50 nM, Log2 fold-change vs DMSO): 0.7405; Difference for 100 nM, POM121C (protein POM121C, 100 nM, Log2 fold-change vs DMSO): 0.8148; Difference for 50 nM, RASA4;RASA4B (proteins RASA4;RASA4B, 50 nM, Log2 fold-change vs DMSO): 0.1914; Difference for 100 nM, RASA4;RASA4B (proteins RASA4;RASA4B, 100 nM, Log2 fold-change vs DMSO): -0.07223 |
| CC(C)(C=C(C#N)C(=O)N1CCCC(n2nc(-c3ccc(Oc4ccccc4)cc3)c3c(N)ncnc32)C1)CCCOCCOCCOCCOCCOc1cccc2c1C(=O)N(C1CCC(=O)NC1=O)C2=O (stereo not shown) [RC-3] | – | the only significant off-target of RC-3 was BLK | – | – | -0.1457 | 0.000999 | – | – | 0.1151 | 0.03137 | activity against noncovalent off-targets CSK and LYN (50 or 100 nM): no activity; Difference for 50 nM, SAC3D1 (protein SAC3D1 (A6NKF1), 50 nM, Log2 fold-change vs DMSO): -1.386; Difference for 100 nM, SAC3D1 (protein SAC3D1 (A6NKF1), 100 nM, Log2 fold-change vs DMSO): -0.4129; Difference for 50 nM, TRAPPC13 (protein TRAPPC13 (A5PLN9), 50 nM, Log2 fold-change vs DMSO): -0.1201; Difference for 100 nM, TRAPPC13 (protein TRAPPC13 (A5PLN9), 100 nM, Log2 fold-change vs DMSO): -0.2022; Difference for 50 nM, GPR89B;GPR89A (proteins GPR89B;GPR89A, 50 nM, Log2 fold-change vs DMSO): -0.3119; Difference for 100 nM, GPR89B;GPR89A (proteins GPR89B;GPR89A, 100 nM, Log2 fold-change vs DMSO): -0.8716 |
| Nc1ncnc2c1c(-c1ccc(Oc3ccccc3)cc1)nn2C1CCCN(C(=O)C=CCOCCOCCOCCOCCOCCOc2cccc3c2C(=O)N(C2CCC(=O)NC2=O)C3=O)C1 (stereo not shown) [IR-1] | not significantly affected | degraded the known ibrutinib off-targets CSK, LYN, and BLK | -0.4718 | 0.1735 | 0.1478 | 0.3122 | -0.2478 | -0.02661 | 0.1815 | -0.5554 | Difference for 50 nM, RGPD3;RGPD4 (proteins RGPD3;RGPD4, 50 nM, Log2 fold-change vs DMSO): 0.0493; Difference for 100 nM, RGPD3;RGPD4 (proteins RGPD3;RGPD4, 100 nM, Log2 fold-change vs DMSO): 0.2554 |
